± gives the expanded uncertainty stated by the source.
Assay: activity coefficient (dimensionless); of the first substance listed, at infinite dilution; xn = mol fraction of the nth substance listed
Details: Liquid, Chemical equilibration / Heterogeneous equilibration, x1 = 0

Compound	activity coefficient (298.15 K, 100 kPa)	activity coefficient (303.15 K, 100 kPa)	activity coefficient (308.15 K, 100 kPa)	activity coefficient (313.15 K, 100 kPa)	activity coefficient (318.15 K, 100 kPa)	activity coefficient (323.15 K, 100 kPa)	activity coefficient (328.15 K, 100 kPa)	activity coefficient (278.15 K, 99 kPa)	activity coefficient (283.15 K, 99 kPa)	activity coefficient (288.15 K, 99 kPa)	activity coefficient (293.15 K, 99 kPa)	activity coefficient (298.15 K, 99 kPa)	activity coefficient (303.15 K, 99 kPa)	activity coefficient (283.15 K, 100 kPa)	activity coefficient (293.15 K, 100 kPa)
O [water] + Clc1ccccc1	376 ± 34	318 ± 29	271 ± 24	235 ± 21	202 ± 18	177 ± 16	–	–	–	–	–	–	–	–	–
O [water] + Brc1ccccc1	367 ± 33	311 ± 28	264 ± 24	226 ± 20	189 ± 17	164 ± 15	–	–	–	–	–	–	–	–	–
O [water] + CCOc1ccccc1	110 ± 9.6	97 ± 8.5	87.3 ± 7.6	77.7 ± 6.8	69.9 ± 6.1	62.7 ± 5.4	–	–	–	–	–	–	–	–	–
O [water] + COc1ccc(Br)cc1	119 ± 10	106 ± 9.3	93.7 ± 8.2	83.3 ± 7.3	74.1 ± 6.4	65.5 ± 5.7	–	–	–	–	–	–	–	–	–
O [water] + COc1ccccc1	95.3 ± 8.3	84.4 ± 7.3	75.8 ± 6.6	68.8 ± 6	61.7 ± 5.3	55.9 ± 4.8	50 ± 4.3	–	–	–	–	–	–	–	–
O [water] + ClC=C(Cl)Cl	–	–	–	–	–	–	–	1200 ± 130	978 ± 100	806 ± 84	663 ± 69	524 ± 54	441 ± 45	–	–
O [water] + Cc1ccccc1	–	300 ± 27	–	214 ± 19	184 ± 16	155 ± 14	–	–	–	–	–	–	–	620 ± 57	423 ± 39
O [water] + FC(F)(F)c1ccccc1	362 ± 33	302 ± 27	256 ± 23	218 ± 20	181 ± 16	155 ± 14	–	–	–	–	–	–	–	–	–

Source: the NIST ThermoML archive (doi:10.1021/acs.jced.7b00114)
